Literature values as cited in publication PMC4894568 (PLoS ONE, 2016).

Experiments:
[1] = test system: Influenza A virus
[2] = test system: Influenza A virus; details: mouse, in vivo

LL-37
infectivity of Influenza A virus [1]: influenced the infectivity | infection with Influenza A virus in an infection model [2]: prevented or inhibited the infection
